# Assay results taken from patent publication US9598440B2, “Inhibitors of IRAK4 activity” (MERCK SHARP & DOHME CORP., priority 2012, dated 2017).
# Target: IRAK4 (Homo sapiens (Human), UniProt Q9NWZ3)
# Assay: Determination of IRAK4 kinase activity (IMAP fluorescence polarization, phosphorylation of fluorescent peptide substrate)
# Type: biochemical
# Conditions: 0.5 nM GST tagged IRAK4, 100 nM peptide substrate RP7030, 100 μM ATP, 30 minutes at 25° C.
# Procedure: The kinase activity of IRAK4 is determined by its ability to catalyze the phosphorylation of a fluorescent polypeptide substrate. The extent of phosphorylation is measured using IMAP technology (Molecular Devices) where the phosphorylated fluorescent substrate binds to the large M(III)-based nanoparticles which reduces the rotational speed of the substrate and thus increases its fluorescent polarization (FP).
# Procedure: A 20 μl reaction mixture contains 10 mM TriHCl, pH 7.2, 0.5 nM GST tagged IRAK4 (SignalChem), 100 nM fluorescent peptide substrate (RP7030, Molecular Devices), 100 μM ATP, 1 mM DTT, 1 mM MgCl2, and 0.01% Tween 20. The reaction is initiated by the addition of ATP. After incubation for 30 minutes at 25° C., 60 μl of Progressive IMAP Reagent (Molecular Devices) is added to stop the reaction. Change in RP7030's FP is determined by a FP reader (Analyst HT, LJL BioSystems). Analytical LCMS Conditions: • Condition A: Phenomenex Luna C18 (4.6×250 mm), 95:5 to 5:95 water:MeCN (0.05% TFA), over 10 min, hold 6 min. • Condition B: Agilent SBC (3.0×50 mm), solvent A: H20-0.1% TFA; • solvent B: ACN-0.1% TFA; GRADIENT TABLE: 0 min:10% B, 0.3 min: 10% B, 1.5 min: 95% B, 2.70 min: 95% B, 2.76 min: 10% B, stop time 3.60 min.
# Chain of IRAK4 (Q9NWZ3 whole entry): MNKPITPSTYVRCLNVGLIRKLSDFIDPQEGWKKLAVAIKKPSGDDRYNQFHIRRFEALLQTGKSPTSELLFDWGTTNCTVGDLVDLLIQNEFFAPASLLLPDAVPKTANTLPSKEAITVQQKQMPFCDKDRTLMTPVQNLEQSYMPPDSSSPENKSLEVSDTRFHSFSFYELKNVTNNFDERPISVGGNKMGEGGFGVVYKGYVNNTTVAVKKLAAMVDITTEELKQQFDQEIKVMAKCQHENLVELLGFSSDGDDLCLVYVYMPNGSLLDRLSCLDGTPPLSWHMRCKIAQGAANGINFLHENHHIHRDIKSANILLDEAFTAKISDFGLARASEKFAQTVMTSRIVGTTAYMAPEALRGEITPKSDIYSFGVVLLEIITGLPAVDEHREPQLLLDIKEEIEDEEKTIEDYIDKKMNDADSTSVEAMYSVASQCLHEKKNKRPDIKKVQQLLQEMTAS
row,SMILES,IC50 [nM]
1,"Cc1cc(Nc2cc(N[C@H]3C[C@@H](C(C)(C)O)[C@H](O)[C@@H]3O)c(-c3ccc4ccccc4n3)cn2)cc(C)n1 (stereo in doubt) [Example 164, (1S,2R,3 S,5R)-3-((2-((2,6-dimethylpyridin-4-yl)amino)-5-(quinolin-2-yl)pyridin-4-yl)amino)-5-(2-hydroxypropan-2-yl)cyclopentane-1,2-diol]",3
2,"OC[C@H]1C[C@@H](Nc2nc(Nc3ccc(O)cc3)ncc2-c2nc3ccccc3s2)[C@H](O)[C@@H]1O [Example 2, (1R,2S,3R,5R)-3-((5-(benzo[d]thiazol-2-yl)-2-((4-hydroxyphenyl)amino)pyrimidin-4-yl)amino)-5-(hydroxymethyl)cyclopentane-1,2-diol]",5.8
3,"COc1cccc(Nc2ncc(-c3nc4ccccc4s3)c(N[C@@H]3C[C@H](CO)[C@@H](O)[C@H]3O)n2)c1 [Example 4, (1R,2S,3R,5R)-3-((5-(benzo[d]thiazol-2-yl)-2-((3-methoxyphenyl)amino)pyrimidin-4-yl)amino)-5-(hydroxymethyl)cyclopentane-1,2-diol]",137
4,"Cc1cc(Nc2ncc(-c3nc4ccccc4s3)c(N[C@@H]3C[C@H](CO)[C@@H](O)[C@H]3O)n2)cc(C)n1 [Example 9, (1R,2S,3R,5R)-3-((5-(benzo[d]thiazol-2-yl)-2-((2,6-dimethylpyridin-4-yl)amino)pyrimidin-4-yl)amino)-5-(hydroxymethyl)cyclopentane-1,2-diol]",0.32
5,"COc1ccc(Nc2ncc(-c3nc4ccccc4s3)c(N[C@@H]3C[C@H](CO)[C@@H](O)[C@H]3O)n2)cc1 [Example 10, (1R,2S,3R,5R)-3-((5-(benzo[d]thiazol-2-yl)-2-((4-methoxyphenyl)amino)pyrimidin-4-yl)amino)-5-(hydroxymethyl)cyclopentane-1,2-diol]",14
6,"OC[C@H]1C[C@@H](Nc2nc(NC3COC3)ncc2-c2nc3ccccc3s2)[C@H](O)[C@@H]1O [Example 12, (1R,2S,3R,5R)-3-((5-(benzo[d]thiazol-2-yl)-2-(oxetan-3-ylamino)pyrimidin-4-yl)amino)-5-(hydroxymethyl)cyclopentane-1,2-diol]",236
7,"OC[C@H]1C[C@@H](Nc2nc(Nc3cccc(F)c3)ncc2-c2nc3ccccc3s2)[C@H](O)[C@@H]1O [Example 13, (1R,2S,3R,5R)-3-((5-(benzo[d]thiazol-2-yl)-2-((3-fluorophenyl)amino)pyrimidin-4-yl)amino)-5-(hydroxymethyl)cyclopentane-1,2-diol]",62
8,"NC(=O)Cc1cccc(Nc2ncc(-c3nc4ccccc4s3)c(N[C@@H]3C[C@H](CO)[C@@H](O)[C@H]3O)n2)c1 [Example 14, 2-(3-((5-(benzo[d]thiazol-2-yl)-4-(((1R,2S,3R,4R)-2,3-dihydroxy-4-(hydroxymethyl)cyclopentyl)amino)pyrimidin-2-yl)amino)phenyl)acetamide]",5.4
9,"OC[C@H]1C[C@@H](Nc2nc(NCC3CC3)ncc2-c2nc3ccccc3s2)[C@H](O)[C@@H]1O [Example 15, (1R,2S,3R,5R)-3-((5-(benzo[d]thiazol-2-yl)-2-((cyclopropylmethyl)amino)pyrimidin-4-yl)amino)-5-(hydroxymethyl)cyclopentane-1,2-diol]",333
10,"COCCCNc1ncc(-c2nc3ccccc3s2)c(N[C@@H]2C[C@H](CO)[C@@H](O)[C@H]2O)n1 [Example 16, (1R,2S,3R,5R)-3-((5-(benzo[d]thiazol-2-yl)-2-((3-methoxypropyl)amino)pyrimidin-4-yl)amino)-5-(hydroxymethyl)cyclopentane-1,2-diol]",228
11,"Nc1ncc(-c2nc3ccncc3s2)c(N[C@@H]2C[C@H](CO)[C@@H](O)[C@H]2O)n1 [Example 21, (1R,2S,3R,5R)-3-((2-amino-5-(thiazolo[5,4-c]pyridin-2-yl)pyrimidin-4-yl)amino)-5-(hydroxymethyl)cyclopentane-1,2-diol]",16
12,"OC[C@H]1C[C@@H](Nc2nc(Nc3ccccc3O)ncc2-c2nc3ccccc3s2)[C@H](O)[C@@H]1O [Example 22, (1R,2S,3R,5R)-3-((5-(benzo[d]thiazol-2-yl)-2-((2-hydroxyphenyl)amino)pyrimidin-4-yl)amino)-5-(hydroxymethyl)cyclopentane-1,2-diol]",1240
13,"OC[C@H]1C[C@@H](Nc2nc(Nc3ccncn3)ncc2-c2nc3ccccc3s2)[C@H](O)[C@@H]1O [Example 25, (1R,2S,3R,5R)-3-((5-(benzo[d]thiazol-2-yl)-2-(pyrimidin-4-ylamino)pyrimidin-4-yl)amino)-5-(hydroxymethyl)cyclopentane-1,2-diol]",34

# More lines, in order of falling IC50, values ahead:
row,IC50 [nM],SMILES
1,3010,"OC[C@H]1C[C@@H](Nc2nc(NC3CCCCC3)ncc2-c2nc3ccccc3s2)[C@H](O)[C@@H]1O [Example 18, (1R,2S,3R,5R)-3-((5-(benzo[d]thiazol-2-yl)-2-(cyclohexylamino)pyrimidin-4-yl)amino)-5-(hydroxymethyl)cyclopentane-1,2-diol]"
2,2560,"Nc1ncc(-c2nc3ccccc3o2)c(N[C@@H]2C[C@H](CO)[C@@H](O)[C@H]2O)n1 [Example 5, (1R,2S,3R,5R)-3-((2-amino-5-(benzo[d]oxazol-2-yl)pyrimidin-4-yl)amino)-5-(hydroxymethyl)cyclopentane-1,2-diol]"
3,2560,"OC[C@H]1C[C@@H](Nc2nc(Nc3ccnc(F)c3)ncc2-c2nc3ccccc3s2)[C@H](O)[C@@H]1O [Example 6, (1R,2S,3R,5R)-3-((5-(benzo[d]thiazol-2-yl)-2-((2-fluoropyridin-4-yl)amino)pyrimidin-4-yl)amino)-5-(hydroxymethyl)cyclopentane-1,2-diol]"
4,1080,"OC[C@H]1C[C@@H](Nc2nc(NC3CCOCC3)ncc2-c2nc3ccccc3s2)[C@H](O)[C@@H]1O [Example 17, (1R,2S,3R,5R)-3-((5-(benzo[d]thiazol-2-yl)-2-((tetrahydro-2H-pyran-4-yl)amino)pyrimidin-4-yl)amino)-5-(hydroxymethyl)cyclopentane-1,2-diol]"
5,516,"Cc1cnccc1Nc1ncc(-c2nc3ccccc3s2)c(N[C@@H]2C[C@H](CO)[C@@H](O)[C@H]2O)n1 [Example 8, (1R,2S,3R,5R)-3-((5-(benzo[d]thiazol-2-yl)-2-((3-methylpyridin-4-yl)amino)pyrimidin-4-yl)amino)-5-(hydroxymethyl)cyclopentane-1,2-diol]"
6,409,"Nc1ncc(-c2nc(-c3ccccc3)cs2)c(N[C@@H]2C[C@H](CO)[C@@H](O)[C@H]2O)n1 [Example 11, (1R,2S,3R,5R)-3-((2-amino-5-(4-phenylthiazol-2-yl)pyrimidin-4-yl)amino)-5-(hydroxymethyl)cyclopentane-1,2-diol]"
7,104,"Nc1ncc(-c2ccc3ccccc3n2)c(N[C@@H]2C[C@H](CO)[C@@H](O)[C@H]2O)n1 [Example 19, (1R,2S,3R,5R)-3-((2-amino-5-(quinolin-2-yl)pyrimidin-4-yl)amino)-5-(hydroxymethyl)cyclopentane-1,2-diol]"
8,24,"Nc1ncc(-c2nc3cnccc3s2)c(N[C@@H]2C[C@H](CO)[C@@H](O)[C@H]2O)n1 [Example 20, (1R,2S,3R,5R)-3-((2-amino-5-(thiazolo[4,5-c]pyridin-2-yl)pyrimidin-4-yl)amino)-5-(hydroxymethyl)cyclopentane-1,2-diol]"
9,22,"OC[C@H]1C[C@@H](Nc2nc(Nc3ccc4cc[nH]c4c3)ncc2-c2nc3ccccc3s2)[C@H](O)[C@@H]1O [Example 24, (1R,2S,3R,5R)-3-((2-((1H-indol-6-yl)amino)-5-(benzo[d]thiazol-2-yl)pyrimidin-4-yl)amino)-5-(hydroxymethyl)cyclopentane-1,2-diol]"
10,20,"OC[C@H]1C[C@@H](Nc2nc(Nc3ccccc3)ncc2-c2nc3ccccc3s2)[C@H](O)[C@@H]1O [Example 1, (1R,2S,3R,5R)-3-((5-(benzo[d]thiazol-2-yl)-2-(phenylamino)pyrimidin-4-yl)amino)-5-(hydroxymethyl)cyclopentane-1,2-diol]"
11,20,"OC[C@H]1C[C@@H](Nc2nc(Nc3ccc4[nH]ccc4c3)ncc2-c2nc3ccccc3s2)[C@H](O)[C@@H]1O [Example 23, (1R,2S,3R,5R)-3-((2-((1H-indol-5-yl)amino)-5-(benzo[d]thiazol-2-yl)pyrimidin-4-yl)amino)-5-(hydroxymethyl)cyclopentane-1,2-diol]"
12,12,"OC[C@H]1C[C@@H](Nc2nc(Nc3cccc(O)c3)ncc2-c2nc3ccccc3s2)[C@H](O)[C@@H]1O [Example 3, (1R,2S,3R,5R)-3-((5-(benzo[d]thiazol-2-yl)-2-((3-hydroxyphenyl)amino)pyrimidin-4-yl)amino)-5-(hydroxymethyl)cyclopentane-1,2-diol]"
13,4.6,"COc1cc(Nc2ncc(-c3nc4ccccc4s3)c(N[C@@H]3C[C@H](CO)[C@@H](O)[C@H]3O)n2)ccn1 [Example 7, (1R,2S,3R,5R)-3-((5-(benzo[d]thiazol-2-yl)-2-((2-methoxypyridin-4-yl)amino)pyrimidin-4-yl)amino)-5-(hydroxymethyl)cyclopentane-1,2-diol]"
